Structures are written as SMILES.

A word on the Emax: it is the maximal effect, on the per cent scale that the assay sets. The term bioavailability denotes the share of a dose that reaches the circulation, judged against a reference dose that is usually intravenous. A word on the clearance: it is the rate of elimination divided by the concentration. As usually defined, the EC50 is the concentration needed to bring the measured effect to its halfway point. What is called IC50 is the concentration at which inhibition is half-maximal.

The target of data set [1] is T1, Bile acid receptor (Homo sapiens) (UniProt Q96RI1).
T1 sequence (whole entry): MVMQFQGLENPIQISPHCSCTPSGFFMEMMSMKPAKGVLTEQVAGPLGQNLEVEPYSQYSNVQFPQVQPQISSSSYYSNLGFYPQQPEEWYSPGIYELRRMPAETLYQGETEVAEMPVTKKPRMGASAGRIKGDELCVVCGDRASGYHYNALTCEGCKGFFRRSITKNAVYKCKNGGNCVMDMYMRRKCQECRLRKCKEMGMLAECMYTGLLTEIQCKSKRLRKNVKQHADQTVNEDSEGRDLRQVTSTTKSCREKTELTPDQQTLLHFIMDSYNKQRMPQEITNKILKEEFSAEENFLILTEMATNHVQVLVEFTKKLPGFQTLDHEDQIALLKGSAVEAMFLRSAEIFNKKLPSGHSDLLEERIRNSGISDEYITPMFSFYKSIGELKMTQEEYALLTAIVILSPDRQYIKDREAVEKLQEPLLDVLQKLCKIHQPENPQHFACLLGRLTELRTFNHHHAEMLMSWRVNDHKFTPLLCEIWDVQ
The experiment in a line: Agonist activity at human FXR LBD transfected in african green monkey CV1 cells assessed as maximum efficacy after overnight incubation by luciferase reporter gene assay relative to GW4064. In kind it is functional, cell-based. The following applies: CV-1. (A reporter such as luciferase makes a cellular process visible.)

Data set [2] addresses T1, Bile acid receptor (Homo sapiens). The experiment in a line: Agonist activity at human amino-terminal polyhistidine-tagged FXR alpha LBD (amino acids 237 to 472) assessed as maximum efficacy measuring cofactor peptide SRC-1 interaction with receptor ligand binding domain after 2 hrs by FRET assay relative to GW4064.
Data set [3] in a line: Oral bioavailability in rat at 5 mg/kg. In kind it is ADME, organism-based. The following applies: in vivo.
Data set [4] in a line: Volume of distribution at steady state in rat at 1 mg/kg, iv. In kind it is ADME, organism-based. The following applies: in vivo, read-out: Vdss. Also noted: dose 1 mg/kg, route intravenous.
Data set [5] in a line: Clearance in rat at 1 mg/kg, iv. The conditions noted are these: in vivo. In kind it is ADME, organism-based. Also noted: dose 1 mg/kg, route intravenous.
A short description of data set [6]: Terminal half life in rat at 1 mg/kg, iv. The following applies: in vivo, read-out: beta t1/2. The format is ADME, organism-based. Also noted: dose 1 mg/kg, route intravenous.
Data set [7] deals with T2, Bile acid receptor (Homo sapiens, UniProt Q96RI1).
T2 sequence (Q96RI1 whole entry): T1 sequence (whole entry)
The experiment in a line: Agonist activity at human amino-terminal polyhistidine-tagged FXR alpha LBD (amino acids 237 to 472) assessed as cofactor peptide SRC-1 interaction with receptor ligand binding domain after 2 hrs by FRET assay.

In another data set the test system is Rattus norvegicus. The experiment in a line: Dose normalized AUC in rat at 5 mg/kg, po. The following applies: in vivo. Set-up: dose 5 mg/kg, route oral. The format is ADME, organism-based.
The target of data set [8] is T2, Bile acid receptor. The experiment in a line: Agonist activity at human FXR LBD transfected in african green monkey CV1 cells after overnight incubation by luciferase reporter gene assay. The format is functional, cell-based, CV-1.
Data set [9] in a line: Selectivity for human FXR over LXR alpha receptor.
A short description of data set [10]: Selectivity for human FXR over LXR beta receptor.
Data set [11] can be described thus: Selectivity for human FXR over PPAR delta receptor.
Data set [12] can be described thus: Selectivity for human FXR over PPAR gamma receptor.
Data set [13] can be described thus: Inhibition of Cytochrome P450. In kind it is ADME.
Data set [14] is described as follows: Selectivity for human FXR over PXR receptor.
Data set [15] in a line: Selectivity for human FXR over PPAR alpha receptor.

As to `CC(C)c1onc(-c2c(Cl)cccc2Cl)c1COc1ccc(-c2ccc3[nH]c(C(=O)O)cc3c2)cc1`, the Emax in [1] was found to be 78%; in data set [2], 81%. In addition, the bioavailability in data set [3] turned out to be 7.1%. Besides, the Vd in data set [4] stood at 1.3 L/kg. This compound registered a clearance in data set [5] of 55 mL/min/kg. In addition, the half-life in data set [6] stood at 1.48 h. The EC50 amounted to 88 nM at Bile acid receptor [7] and 110 nM on Bile acid receptor [8]. In the data set on Rattus norvegicus, this compound registered an AUC/dose of 22 ng·kg·h/mL/mg.

Turning to `CC(C)c1onc(-c2c(Cl)cccc2Cl)c1COc1ccc(Cn2ccc3ccc(C(=O)O)cc32)cc1`, the maximum response (Emax) in data set [1] amounted to 42%; in data set [2], 38%. The EC50 at Bile acid receptor [7] was determined as 1000 nM; on Bile acid receptor [8], 500 nM.

`CC(C)c1onc(-c2c(Cl)cccc2Cl)c1COc1ccc(-c2ccc3sc(C(=O)O)cc3n2)cc1`: the Emax amounted to 82% in data set [1] and 53% in data set [2]. Moreover, the EC50 came out at 670 nM on Bile acid receptor [7] and 1700 nM on Bile acid receptor [8].

As for `CC(C)c1onc(-c2c(Cl)cccc2Cl)c1COc1ccc(/C=C/c2cccc(C(=O)O)c2)c(Cl)c1`, the Emax in data set [1] and in data set [2] was 100% in each case.

As for `CC(C)c1onc(-c2c(Cl)cccc2Cl)c1COc1ccc(-c2ccc3sc(C(=O)O)cc3c2)cc1`, the maximum response (Emax) was found to be 91% in [1] and 77% in [2]. Moreover, the figures for the EC50 at Bile acid receptor [7] and at Bile acid receptor [8] were 250 nM and 530 nM, respectively.

With `CC(C)c1onc(-c2c(Cl)cccc2Cl)c1COc1ccc(-c2ccc3c(C(=O)O)csc3c2)cc1`, the values for the Emax in data set [1] and in data set [2] were 81% and 115%, respectively. The bioavailability in [3] came to 0%. Further, the Vd in [4] stood at 0.73 L/kg. In addition, in data set [5], the clearance was 50 mL/min/kg. Besides, in data set [6], the half-life stood at 0.367 h. Further, the EC50 worked out at 21 nM on Bile acid receptor [7] and 24 nM on Bile acid receptor [8]. The compound also came in with an AUC/dose in the data set on Rattus norvegicus of 0 ng·kg·h/mL/mg.

`CC(C)c1onc(-c2c(Cl)cccc2Cl)c1COc1ccc(-c2ccc3cc(C(=O)O)[nH]c3c2)cc1`: the Emax in [1] came to 69%; in data set [2], 96%. For the same compound, the bioavailability in data set [3] stood at 3%. Moreover, in data set [4], the Vd turned out to be 0.5 L/kg. Besides, in data set [5], the clearance was 30 mL/min/kg. Moreover, the half-life in data set [6] amounted to 1.17 h. Besides, the concentration for a half-maximal effect (EC50) was determined as 210 nM at Bile acid receptor [7] and 140 nM at Bile acid receptor [8]. The compound also had an AUC/dose in the data set with Rattus norvegicus of 16 ng·kg·h/mL/mg.

As for `CC(C)c1onc(-c2c(Cl)cccc2Cl)c1COc1ccc(Sc2cccc3sc(C(=O)O)cc23)cc1`, the Emax in [1] was found to be 59%; in data set [2], 72%. For the same compound, the EC50 at Bile acid receptor [7] turned out to be 190 nM; at Bile acid receptor [8], 990 nM.

`CC(C)c1onc(-c2c(Cl)cccc2Cl)c1COc1ccc(-c2ccc3nc(C(=O)O)ccc3c2)cc1`: the Emax in data set [1] was 102%; in [2], 105%. Further, in data set [4], the Vd is 3.4 L/kg. The compound also showed a clearance in [5] of 32 mL/min/kg. For the same compound, in [6], the half-life was 2.83 h. The AUC/dose with Rattus norvegicus worked out at 130 ng·kg·h/mL/mg.

Turning to `CC(C)c1onc(-c2c(Cl)cccc2Cl)c1COc1ccc(-c2nc3cccc(C(=O)O)c3[nH]2)cc1`, the values for the Emax in data set [1] and in data set [2] were 36% and 61%, respectively. The results for the EC50 at Bile acid receptor [7] and at Bile acid receptor [8] were 1200 nM and 1300 nM, respectively.

Take `CC(C)c1onc(-c2c(Cl)cccc2Cl)c1COc1ccc(-c2ccc3c(C(=O)O)cccc3c2)cc1`: the Emax worked out at 104% in data set [1] and 134% in data set [2].

As to `CC(C)c1onc(-c2c(Cl)cccc2Cl)c1COc1ccc(-c2ccc3oc(C(=O)O)cc3c2)cc1`, the Emax in data set [1] is 90%; in data set [2], 93%. Besides, the bioavailability in [3] was 20%. In addition, the Vd in data set [4] was determined as 1.7 L/kg. Also, the clearance in data set [5] is 78 mL/min/kg. Further, the half-life in data set [6] came to 1.02 h. Moreover, the EC50 on Bile acid receptor [7] stood at 51 nM; at Bile acid receptor [8], 130 nM. For the same compound, in the data set on Rattus norvegicus, the AUC/dose stood at 43 ng·kg·h/mL/mg.

On to `CC(C)c1onc(-c2c(Cl)cccc2Cl)c1COc1ccc(-c2ccc3c(c2)CC(C(=O)O)C3)cc1` (stereo not given), for which the results for the Emax in data set [1] and in [2] were 59% and 75%, respectively. For the same compound, the EC50 on Bile acid receptor [7] was found to be 750 nM; on Bile acid receptor [8] it was 490 nM.

As to `CC(C)c1onc(-c2c(Cl)cccc2Cl)c1COc1ccc(-c2ccc3c(C(=O)O)c[nH]c3c2)cc1`, the fold change (FC) in data set [9], in [10], in [11], in [12], in [14] and in [15] was more than 100 each time. Further, the maximal response (Emax) in data set [1] came out at 35%; in data set [2], 107%. The same compound displayed a bioavailability in data set [3] of 5.1%. Besides, in data set [4], the Vd stood at 1.2 L/kg. The IC50 in data set [13] is on record as more than 5000 nM. The compound further registered a clearance in [5] of 76 mL/min/kg. In addition, in data set [6], the half-life was 0.433 h. Moreover, the figures for the EC50 on Bile acid receptor [7] and on Bile acid receptor [8] were 20 nM and 31 nM, respectively. Moreover, the AUC/dose in the data set on Rattus norvegicus worked out at 11 ng·kg·h/mL/mg.

Take `CC(C)c1onc(-c2c(Cl)cccc2Cl)c1COc1ccc(-c2ccc3c(c2)CCCC3C(=O)O)cc1` (stereo not given): the results for the Emax in [1] and in data set [2] were 68% and 72%, respectively. The EC50 on Bile acid receptor [7] was 550 nM; at Bile acid receptor [8], 750 nM.

Source of the values: ChEMBL document CHEMBL1833944, “Conformationally constrained farnesoid X receptor (FXR) agonists: alternative replacements of the stilbene” (Bioorg Med Chem Lett, 2011).
